Test: xn = mol fraction of the nth substance listed
Details: Ring tensiometer

OCc1ccccc1 [benzenemethanol] + CC(C)O
surface tension liquid-gas [mN/m]
Details	x2 = 0	x2 = 0.0029	x2 = 0.005	x2 = 0.0076	x2 = 0.0117	x2 = 0.0207	x2 = 0.0329	x2 = 0.0494
293.15 K	39.05	37.69	37.53	37.21	36.95	36.79	36.56	36.06
298.15 K	38.58	37.3	37.09	36.8	36.53	36.37	36.15	35.53
303.15 K	38.12	36.95	36.68	36.43	36.13	35.97	35.78	35.09
308.15 K	37.63	36.62	36.32	36.05	35.75	35.55	35.41	34.61
313.15 K	37.16	36.29	35.92	35.68	35.39	35.14	35.04	34.11
318.15 K	36.63	35.89	35.48	35.27	35.04	34.73	34.62	33.63
323.15 K	36.18	35.55	35.04	34.92	34.64	34.29	34.22	33.22

OCc1ccccc1 [benzenemethanol] + CCC(C)O
surface tension liquid-gas [mN/m]
Details	x2 = 0	x2 = 0.0026	x2 = 0.0056	x2 = 0.0078	x2 = 0.0107	x2 = 0.0246	x2 = 0.0366	x2 = 0.0512
293.15 K	39.05	37.5	37.14	36.95	36.4	36.07	35.65	35.32
298.15 K	38.58	37.08	36.75	36.52	36.05	35.64	35.25	34.88
303.15 K	38.12	36.63	36.31	36.12	35.72	35.18	34.83	34.4
308.15 K	37.63	36.2	35.97	35.71	35.39	34.77	34.46	34
313.15 K	37.16	35.75	35.55	35.31	35.03	34.37	34.03	33.54
318.15 K	36.63	35.35	35.17	34.9	34.67	33.95	33.62	33.07
323.15 K	36.18	34.95	34.8	34.49	34.34	33.5	33.24	32.7

OCc1ccccc1 [benzenemethanol] + CCCC(C)O
surface tension liquid-gas [mN/m]
Details	x2 = 0	x2 = 0.0026	x2 = 0.0055	x2 = 0.0093	x2 = 0.0129	x2 = 0.0238	x2 = 0.0344	x2 = 0.0542
293.15 K	39.05	36.98	36.71	36.43	35.99	35.72	35.49	35.08
298.15 K	38.58	36.48	36.22	35.95	35.54	35.32	35.08	34.61
303.15 K	38.12	35.95	35.7	35.53	35.15	34.9	34.71	34.1
308.15 K	37.63	35.46	35.18	35	34.73	34.49	34.32	33.61
313.15 K	37.16	34.97	34.73	34.54	34.33	34.05	33.93	33.1
318.15 K	36.63	34.44	34.18	34.07	33.91	33.63	33.49	32.69
323.15 K	36.18	33.91	33.65	33.56	33.55	33.28	33.11	32.19

OCc1ccccc1 [benzenemethanol] + CCCCCO
surface tension liquid-gas [mN/m]
Details	x2 = 0	x2 = 0.0037	x2 = 0.0052	x2 = 0.0083	x2 = 0.0117	x2 = 0.0213	x2 = 0.0336	x2 = 0.0536
293.15 K	39.05	36.88	36.73	36.56	36.35	35.93	35.63	35.22
298.15 K	38.58	36.41	36.34	36.12	35.93	35.5	35.21	34.76
303.15 K	38.12	36.05	35.92	35.73	35.5	35.05	34.79	34.31
308.15 K	37.63	35.64	35.51	35.28	35.1	34.64	34.35	33.8
313.15 K	37.16	35.26	35.1	34.86	34.69	34.24	33.95	33.34
318.15 K	36.63	34.86	34.7	34.47	34.29	33.82	33.52	32.95
323.15 K	36.18	34.47	34.31	34.03	33.89	33.4	33.08	32.43

OCc1ccccc1 [benzenemethanol] + CCCCO
surface tension liquid-gas [mN/m]
Details	x2 = 0	x2 = 0.0034	x2 = 0.0044	x2 = 0.0071	x2 = 0.0117	x2 = 0.0213	x2 = 0.0303	x2 = 0.0492
293.15 K	39.05	37.89	37.67	37.12	36.88	36.62	36.46	35.94
298.15 K	38.58	37.43	37.23	36.67	36.48	36.17	35.99	35.49
303.15 K	38.12	36.95	36.79	36.22	36.03	35.68	35.52	35.06
308.15 K	37.63	36.5	36.36	35.77	35.6	35.18	35.02	34.64
313.15 K	37.16	36.06	35.93	35.33	35.1	34.74	34.57	34.16
318.15 K	36.63	35.63	35.51	34.84	34.66	34.27	34.02	33.74
323.15 K	36.18	35.24	35.08	34.44	34.18	33.84	33.59	33.35
